Tested on: mature miR-21 in HeLa cells
Assay: qRT-PCR of mature miR-21 in HeLa cells
Type: cell-based
Method: FIGS. 12A and 12B compare levels of mature miR-21 in HeLa cells, as measured by standard qRT-PCR after 5 days of incubation in the presence of palbociclib and compounds −0045 (sm1), −0050 (sm3) and −0052 (sm5) (FIG. 12A); and levels of mature miR-21 in HeLa cells were measured by qRT-PCR after 4 days of incubation in the presence of palbociclib (a control) and compounds −0045 (sm1), −0050 (sm3) and −0052 (sm5) (FIG. 12B), normalized to miR-21 levels in the absence of any compound. […] The two panels represent independent duplicates of the same experiment.
HeLa cells have relatively high levels of miR-21, and this cell line was used to evaluate whether addition of the molecules would decrease levels of mature miR-21, as expected for inhibition of miR-21 processing. […] In contrast, compounds −0045, −50 and −52, induce an approximately 20% percent decline in levels of mature miR-21 (FIGS. 12A and 12B; the comparison of FIG. 12A and FIG. 12B provides an indication in the uncertainty of the data). miR-21 is very long lived, with a lifetime of approximately 5 days. […] Similar results were obtained at higher numbers of cells/plate (200 k vs at the start of the experiment), but the experiment could not be extended beyond 2 days because of the very high cell density reached. The observed trends were nonetheless in agreement with the experiments conducted at lower cell density.

Compound | increase in levels of miR-21 (days 4 and 5 of incubation, 20 k vs 200 k cells/plate, normalized to no compound) | decline in levels of mature miR-21 (days 4 and 5 of incubation, normalized to no compound) | reduction of all newly synthesized miR-21 (worked out from the 20% decrease and miR-21 lifetime of approximately 5 days)
CC(=O)c1c(C)c2cnc(Nc3ccc(N4CCNCC4)cn3)nc2n(C2CCCC2)c1=O [Palbociclib, reference compound] | 10-20% |  | 
O=c1[nH]c(Nc2ccc(N3CCNCC3)cn2)nc2ccncc12 [−0050] |  | approximately 20% | about 60%
